These results are taken from patent US6943183B2 (Pfizer Inc, priority 2000, dated 2005).

In series [1] the target is T1, SF9 affinity purified rat FPT (Rattus norvegicus, UniProt Q02293+Q04631).
T1 construct: made in house; host or cells: Sf9 insect cells
The series is described as follows: PFT (FPT) inhibitory activity assay, radiolabeled farnesyl pyrophosphate and biotinyl peptide, streptavidin beads. Particulars: HEPES buffer pH 7.4, 30° C., 30 minutes; read-out: FTase IC50. The class given is biochemical. In short, it runs like this: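 Rat FPT expressed in SF9 cells was incubated 30 minutes at 30° C. with compound (in 10% DMSO), radiolabeled farnesyl pyrophosphate and biotinylated peptide. Buffer: HEPES pH 7.4, ZnCl2 20 μM, MgCl2 and DTT 5 mM each, 0.1% PEG 8000, 5 mM potassium phosphate (also run without phosphate). Product captured on streptavidin beads in magnesium acetate/H3PO4 stop buffer.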

In series [2] the test system is EJ-1 human bladder carcinoma. Particulars: 100 mg/kg, xenograft in nude mice; cited from earlier work.
The test system of series [3] is HT1080 human fibrosarcoma. Particulars: 100 mg/kg, xenograft in nude mice; cited from earlier work.
Series [4] relates to human colon carcinoma xenografts. Particulars: 100 mg/kg, xenograft in nude mice; cited from earlier work.
In series [5] the test system is human lung carcinoma with K-ras mutation and p53 deletion. Particulars: nude mice; cited from earlier work.
For series [6], the system named is mammary and salivary carcinomas. Particulars: daily administration, ras transgenic mice; cited from earlier work.

A word on the IC50: it is the midpoint of a concentration-inhibition curve. One may read the melting point as the temperature, or range, at which the solid turns liquid.

Consider `Nc1nccn1CC(Oc1ccc2c(c1CCc1ccccc1)CCCC2=O)c1ccccc1` (centres unmarked) [Compound 63r, 6-[2-(2-Amino-imidazol-1-yl)-1-phenyl-ethoxy]-5-phenethyl-3,4-dihydro-2H-naphthalen-1-one], for which the melting point fell in the range of 185 to 188 °C. Further, the half-inhibitory concentration (IC50) in series [1] stood at 35 nM.
Take `CC(O)CNC(=O)c1cccc(S(=O)(=O)Cc2c(O[C@H](Cn3ccnc3)c3ccccc3)ccc3c2CCCC3=O)c1` (stereo partly drawn) [Compound 254, N-(2-Hydroxypropyl)-3-{[(2-{[(1S)-2-(1H-imidazol-1-yl)-1-phenylethyl]oxy}-5-oxo-5,6,7,8-tetrahydro-1-naphthalenyl)methyl]sulfonyl}benzamide]: the IC50 in series [1] stood at 1 nM.
On the same count and under the same terms, in the case of `CC(O)CNC(=O)c1ccccc1S(=O)(=O)Cc1c(O[C@H](Cn2ccnc2)c2ccccc2)ccc2c1CCCC2=O` (some centres unmarked) [Compound 255] it was 0.2 nM.
Still for that read-out and setting: in the case of `CC(O)CNC(=O)c1ccc(SCc2c(O[C@H](Cn3ccnc3)c3ccccc3)ccc3c2CCCC3=O)cc1` (stereo partly drawn) [Compound 256, N-(2-Hydroxypropyl)-4-{[(2-{[(1S)-2-(1H-imidazol-1-yl)-1-phenylethyl]oxy}-5-oxo-5,6,7,8-tetrahydro-1-naphthalenyl)methyl]sulfanyl}benzamide] it was 0.2 nM.
The same measure, in the same setting: in the case of `CC(O)CNC(=O)c1ccccc1SCc1c(O[C@H](Cn2ccnc2)c2ccccc2)ccc2c1CCCC2=O` (stereo partly drawn) [Compound 257, N-(2-Hydroxypropyl)-2-{[(2-{[(1S)-2-(1H-imidazol-1-yl)-1-phenylethyl]oxy}-5-oxo-5,6,7,8-tetrahydro-1-naphthalenyl)methyl]sulfanyl}benzamide] it was 0.2 nM; in that of `CC(O)CNC(=O)c1cccc(SCc2c(O[C@H](Cn3ccnc3)c3ccccc3)ccc3c2CCCC3=O)c1` (stereo partly drawn) [Compound 258, N-(2-Hydroxypropyl)-3-{[(2-{[(1S)-2-(1H-imidazol-1-yl)-1-phenylethyl]oxy}-5-oxo-5,6,7,8-tetrahydro-1-naphthalenyl)methyl]sulfanyl}benzamide], 0.2 nM.
For the compound `COCCNC(=O)c1cccc(SCc2c(O[C@H](Cn3ccnc3)c3ccccc3)ccc3c2CCCC3=O)c1` [Compound 259, 3-{[(2-{[(1S)-2-(1H-Imidazol-1-yl)-1-phenylethyl]oxy}-5-oxo-5,6,7,8-tetrahydro-1-naphthalenyl)methyl]sulfanyl}-N-(2-methoxyethyl)benzamide], the IC50 in series [1] is 0.2 nM.
On the same count and under the same terms, in the case of `COCCNC(=O)c1ccccc1SCc1c(O[C@H](Cn2ccnc2)c2ccccc2)ccc2c1CCCC2=O` [Compound 260, 2-{[(2-{[(1S)-2-(1H-Imidazol-1-yl)-1-phenylethyl]oxy}-5-oxo-5,6,7,8-tetrahydro-1-naphthalenyl)methyl]sulfanyl}-N-(2-methoxyethyl)benzamide] it was 0.2 nM; in that of `COCCNC(=O)c1ccc(SCc2c(O[C@H](Cn3ccnc3)c3ccccc3)ccc3c2CCCC3=O)cc1` [Compound 261], 0.2 nM.
With `COCCNC(=O)c1cccc(S(=O)(=O)Cc2c(O[C@H](Cn3ccnc3)c3ccccc3)ccc3c2CCCC3=O)c1` [Compound 263, 3-{[(2-{[(1S)-2-(1H-Inimidazol-1-yl)-1-phenylethyl]oxy}-5-oxo-5,6,7,8-tetrahydro-1-naphthalenyl)methyl]sulfonyl}-N-(2-methoxyethyl)benzamide], the IC50 in series [1] is 0.2 nM.
On to `COCCNC(=O)c1ccccc1S(=O)(=O)Cc1c(O[C@H](Cn2ccnc2)c2ccccc2)ccc2c1CCCC2=O` [Compound 264, 2-{[(2-{[(1S)-2-(1H-Imidazol-1-yl)-1-phenylethyl]oxy}-5-oxo-5,6,7,8-tetrahydro-1-naphthalenyl)-methyl]sulfonyl}-N-(2-methoxyethyl)benzamide], for which the half-inhibitory concentration (IC50) in series [1] turned out to be 0.2 nM.
Turning to `COC(=O)[C@H](CCSC)NC(=O)[C@H](/C=C\[C@@H](/C=C/[C@@H](N)CS)C(C)C)Cc1ccccc1` [Compound B1086], the “inhibition of tumor growth” value in series [2], in series [3] and in series [4] was “inhibit tumor growth” throughout.
As for `CSCC[C@H](NC(=O)c1ccc(NC[C@@H](N)CS)cc1-c1ccccc1)C(=O)O` [FTI276], in series [5], the “block of tumor growth” value was “selectively block tumor growth”.
For `CC[C@H](C)[C@@H](CO[C@@H](Cc1ccccc1)C(=O)N[C@@H](CCS(C)(=O)=O)C(=O)OC(C)C)NC[C@@H](N)CS` [L-744,832], in series [6], the tumor regression result is recorded as “tumor regression”.
